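The compound was tested at five concentrations on cells cultured in 96-well plates, with a 48-hour exposure period. GI50 is the concentration that inhibits growth by half. TGI denotes the concentration required for complete inhibition of growth.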
Experiments:
Test in all cases: NCI tumour cell line growth inhibition, 48 h
[1] = tested on: T-47D breast
[2] = tested on: KM20L2 colon
[3] = tested on: DMS 114 small cell lung
[4] = tested on: M19-MEL melanoma
[5] = tested on: LXFL 529 NSCLC
[6] = tested on: XF 498 CNS
[7] = tested on: SNB-78 CNS
[8] = tested on: RXF-631 renal
[9] = tested on: MDA-N

O=C(/C=C/c1ccco1)c1cccc(Nc2nc(Nc3ccccc3)nc(Nc3ccccc3)n2)c1
GI50 [1]: 3.61 µM | TGI [1]: > 100 µM

COc1cc(Cl)c(C)cc1NC(=O)c1cc2ccccc2cc1O
GI50 [1]: 2.07 µM | TGI [1]: 11.7 µM

COc1ccc(/C=N/C2=C(C#N)C(c3ccccc3)c3ccc4ccccc4c3O2)cc1 (stereo not drawn)
GI50 [1]: 0.493 µM | TGI [1]: > 100 µM

C/C(=N\O)c1ccc(Nc2cc(-c3ccccc3)nc3c(O)cccc23)cc1
GI50 [1]: 5.44 µM | TGI [1]: 32.9 µM

CN=C(NC#N)NCc1ccccc1
TGI [2]: > 100 µM | TGI [3]: > 100 µM | TGI [4]: > 100 µM | TGI [5]: > 100 µM | TGI [6]: > 100 µM | TGI [7]: > 100 µM

Nc1c(S(=O)(=O)O)cc2c(c1Cl)C(=O)c1ccccc1C2=O
GI50 [1]: > 100 µM | TGI [1]: > 100 µM

CC(=O)NC1C(OCc2ccccc2)OC(COC(=O)CCCCCCCCCCNC(=O)CCNc2ccc([N+](=O)[O-])c3[nH]c4ccc(O)cc4c(=O)c23)C(O)C1OC(C)C(=O)N[C@H](C(=O)N[C@H](CCC(=O)O)C(N)=O)C(C)C (stereo partly drawn)
TGI [2]: > 100 µM | TGI [3]: > 100 µM | TGI [8]: > 100 µM | TGI [4]: > 100 µM | TGI [5]: > 100 µM | TGI [7]: > 100 µM

CC(=O)c1ccc(-c2ccc(C(C)=O)s2)s1
TGI [2]: > 100 µM | TGI [3]: 2.76 µM | TGI [8]: > 100 µM | TGI [4]: > 100 µM | TGI [5]: > 100 µM | TGI [6]: > 100 µM | TGI [7]: > 100 µM

O=C(NCCOCCO)c1ccc(O)cc1
TGI [2]: > 100 µM | TGI [3]: > 100 µM | TGI [4]: > 100 µM | TGI [5]: > 100 µM | TGI [6]: > 100 µM

COc1ccc2c(c1)cn1c3ccc(OC)cc3[nH]c(=O)c21
GI50 [1]: 1.04 µM | TGI [1]: 2.61 µM

O=C1C2Cc3ccccc3CN2C(=O)N1CCN1CCOCC1 (stereo not drawn)
TGI [2]: > 100 µM | TGI [3]: > 100 µM | TGI [8]: > 100 µM | TGI [4]: > 100 µM | TGI [5]: > 100 µM

CN(Cc1cccc(Cl)c1)c1ccc(CO)c(Cl)c1
GI50 [1]: 0.746 µM | TGI [1]: 5.17 µM

COc1ccc(-n2cc(-c3ccc(F)cc3)[nH]c2=O)cc1OC
GI50 [1]: > 100 µM | TGI [1]: > 100 µM

Nc1c(-c2ccc(-c3c(N)[n+]([O-])c4ccccc4[n+]3[O-])cc2)[n+]([O-])c2ccccc2[n+]1[O-]
TGI [3]: 16.3 µM | TGI [4]: 36.2 µM | TGI [5]: 35.4 µM | TGI [6]: 23.9 µM | TGI [7]: 62.3 µM

O=C1OC(/C=C/c2ccccc2)C(=O)C1=O (stereo not drawn)
TGI [2]: > 100 µM | TGI [4]: > 100 µM | TGI [5]: > 100 µM | TGI [6]: > 100 µM

CCN(CC)[C@@H]1c2cc3c(cc2C(c2cc(OC)c(O)c(OC)c2)C2C(=O)CO[C@@H]21)OCO3 (stereo partly drawn)
TGI [2]: > 100 µM | TGI [3]: > 100 µM | TGI [8]: > 100 µM | TGI [4]: > 100 µM | TGI [5]: > 100 µM | TGI [6]: > 100 µM

COC(=O)C1=CCS(=O)(=O)C1
TGI [2]: > 100 µM | TGI [3]: > 100 µM | TGI [8]: > 100 µM | TGI [4]: > 100 µM | TGI [5]: > 100 µM | TGI [6]: > 100 µM | TGI [7]: > 100 µM

OCC1C2C=CC(O2)[C@H]1CO (stereo partly drawn)
TGI [2]: > 100 µM | TGI [3]: > 100 µM | TGI [8]: > 100 µM | TGI [4]: > 100 µM | TGI [5]: > 100 µM | TGI [7]: > 100 µM

O=C(c1ccccc1)C(c1ccccc1)C1(O)C(=O)Nc2ccc(Br)cc21 (stereo not drawn)
TGI [2]: > 100 µM | TGI [3]: 50.5 µM | TGI [8]: > 100 µM | TGI [4]: 30.6 µM | TGI [5]: 53.1 µM | TGI [7]: > 100 µM

Nc1nc(-c2ccccc2Cl)cc(-c2ccc(Cl)cc2Cl)n1
GI50 [1]: 6.58 µM | TGI [1]: > 100 µM

COc1cc(/C=C/C(=O)c2ccc(SC)cc2)cc(OC)c1OC
GI50 [1]: 9.68 µM | TGI [1]: 62.9 µM

Nc1nc(N)c(N=Nc2ccc([As](=O)(O)O)c(O)c2)c(N)n1
TGI [1]: > 100 µM | TGI [9]: 5.29 µM

Cc1cc(=O)[nH]c2c1C(=O)C(=O)C=C2
GI50 [1]: 58.6 µM | TGI [1]: > 100 µM

COc1ccc(S(=O)(=O)Nc2c(/C=C\c3cc(OC)c(OC)c(OC)c3)ccc(OC)c2O)cc1OC
GI50 [1]: > 86.9 µM | TGI [1]: > 100 µM

C=C(C=O)[C@@H]1CC=C(C=O)CC1
GI50 [1]: 3.06 µM | TGI [1]: 26.4 µM

Cc1cnc2n(c1=O)Cc1ccccc1CO2
GI50 [1]: 6.79 µM | TGI [1]: 29.3 µM

Nc1c2c(c(O)c3c1=C(CO)C=N3)=NCCS2=O (stereo not drawn)
GI50 [1]: 0.688 µM | TGI [1]: 2.68 µM

CCC1(O)CC(c2ccccc2)N(C)C(c2ccccc2)C1 (stereo not drawn)
TGI [2]: > 100 µM | TGI [3]: > 100 µM | TGI [8]: > 100 µM | TGI [4]: > 100 µM | TGI [5]: > 100 µM | TGI [7]: > 100 µM

COc1ccc(/C=C\c2cc(OC)c(OC(C)=O)c(OC)c2)cc1
TGI [2]: > 100 µM | TGI [3]: 61.7 µM | TGI [8]: > 100 µM | TGI [4]: > 100 µM | TGI [5]: > 100 µM | TGI [6]: > 100 µM | TGI [7]: 73.9 µM

OC1/C(=C/c2ccccc2)CNC/C1=C\c1ccccc1 (stereo not drawn)
TGI [2]: > 100 µM | TGI [3]: > 100 µM | TGI [4]: > 100 µM | TGI [5]: > 100 µM | TGI [7]: > 100 µM

O=C1CCCC1C(O)(C(F)(F)Cl)C(F)(F)Cl (stereo not drawn)
TGI [1]: > 10 µM | TGI [9]: > 10 µM

COc1cc(-c2cc(C(=O)N3CCN(C(=O)c4ccccc4NCc4cccs4)CC3)nc3cc(-c4ccccc4)nn23)cc(OC)c1OC
GI50 [1]: 8.38 µM | TGI [1]: > 100 µM

Clc1ccc2c(NCCCNCc3ccc4c(c3)OCO4)ccnc2c1
GI50 [1]: 2.11 µM | TGI [1]: 5.26 µM

O=C(Nc1ccc(-n2cc(-c3ccncc3)c(-c3ccc(Cl)c(O)c3)n2)cc1)c1ccc(Cl)c(C(F)(F)F)c1
GI50 [1]: 3.03 µM | TGI [1]: > 34.9 µM

NCCCCNCCCNC(=O)c1csc(-c2nc(CCN)sc2Cl)n1
TGI [1]: > 100 µM | TGI [9]: > 100 µM

O=C1/C=C/[C@@H](O)[C@@H]2C[C@@H](O)C[C@H]2/C=C/CCCCO1
GI50 [1]: 1.14 µM | TGI [1]: 4.43 µM

OC1OC2COC(c3ccccc3)OC2C(O)C1O (stereo not drawn)
TGI [2]: > 100 µM | TGI [3]: > 100 µM | TGI [4]: > 100 µM | TGI [5]: > 100 µM | TGI [6]: > 100 µM | TGI [7]: > 100 µM

Cc1ccc(Sc2cc([N+](=O)[O-])cc(Sc3ccc(C)cc3)c2Sc2ccc(C)cc2)cc1
TGI [2]: > 100 µM | TGI [3]: > 100 µM | TGI [4]: > 100 µM | TGI [5]: > 100 µM | TGI [6]: > 100 µM | TGI [7]: > 100 µM

CC/C(=C(/c1ccc(Cl)cc1)c1ccc(OCCCN(C)C)cc1)c1ccc(OC)cc1
GI50 [1]: 3.76 µM | TGI [1]: 12.1 µM

Cn1cc(C2=C(c3cn(CCCN/C(N)=N\[N+](=O)[O-])c4ccccc34)C(=O)NC2=O)c2ccccc21
GI50 [1]: 2.01 µM | TGI [1]: > 14.8 µM

c1ccc2c(c1)-c1nc3ccccc3cc1C2N1CCOCC1 (stereo not drawn)
TGI [1]: > 100 µM | TGI [9]: > 100 µM
